Measured values reported in ChEMBL document CHEMBL1201862, “PubChem BioAssay data set” (2004).
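How tested: cells in 96-well plates exposed to compound for 48 hours at five concentrations. The concentration for 50% growth inhibition is given as GI50.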 The source made the active and inactive calls. Rule as the data show it: active = GI50 up to about 1.1 µM and inactive = higher.

Tests used:
Experiment in all cases: DTP human tumour cell line panel, 48 h
CAKI-1 = system: CAKI-1
HT-29 = system: HT-29
Malme-3M = system: Malme-3M
NCI-H23 = system: NCI-H23
NCI-H460 = system: NCI-H460
OVCAR-3 = system: OVCAR-3
OVCAR-4 = system: OVCAR-4
SF-268 = system: SF-268
SF-295 = system: SF-295
SK-MEL-28 = system: SK-MEL-28
SK-MEL-2 = system: SK-MEL-2
SK-MEL-5 = system: SK-MEL-5
SNB-75 = system: SNB-75
SR = system: SR
TK-10 = system: TK-10
UACC-62 = system: UACC-62
MDA-MB-231 = system: MDA-MB-231
NCI/ADR-RES = system: NCI/ADR-RES

Measured: GI50

Cc1cc(N(CCC#N)CCC#N)ccc1/C=C1\N=C(c2cc([N+](=O)[O-])ccc2Cl)N(c2cccc(Cl)c2)C1=O
inactive: CAKI-1 3.08 µM | HT-29 45.2 µM | Malme-3M > 100 µM | NCI-H23 > 100 µM | NCI-H460 > 100 µM | OVCAR-3 > 100 µM | OVCAR-4 > 100 µM | SF-268 > 100 µM | SF-295 > 100 µM | SK-MEL-28 > 100 µM | SK-MEL-2 > 100 µM | SK-MEL-5 > 100 µM | SNB-75 > 100 µM | SR 94.4 µM | TK-10 > 100 µM | UACC-62 > 100 µM

O=c1cc(-c2ccccc2)oc2cc(OCCSCCCCCCCCCCSCCOc3ccc4c(=O)cc(-c5ccccc5)oc4c3)ccc12
inactive: CAKI-1 > 100 µM | HT-29 > 100 µM | Malme-3M > 100 µM | NCI-H23 > 100 µM | OVCAR-3 > 100 µM | SF-268 74.3 µM | SF-295 > 100 µM | SK-MEL-28 > 100 µM | SK-MEL-2 > 100 µM | SK-MEL-5 > 100 µM | SNB-75 > 100 µM | SR > 100 µM | TK-10 > 100 µM | UACC-62 65.9 µM

O=C1[C@@H]2C(c3ccccc3F)=NO[C@@H]2C(=O)N1c1ccc(Cc2ccc(N3C(=O)[C@H]4C(c5ccccc5F)=NO[C@H]4C3=O)cc2)cc1
inactive: CAKI-1 > 100 µM | HT-29 > 100 µM | Malme-3M > 100 µM | NCI-H23 > 100 µM | NCI-H460 > 100 µM | OVCAR-3 > 100 µM | OVCAR-4 > 100 µM | SF-268 > 100 µM | SF-295 > 100 µM | SK-MEL-28 > 100 µM | SK-MEL-2 > 100 µM | SK-MEL-5 > 100 µM | SNB-75 > 100 µM | SR 34.1 µM | TK-10 > 31.6 µM | UACC-62 > 100 µM

CN(C)C12C=CC=CC3=C(c4ccccc4)C(c4ccccc4)=C(c4ccccc4)C31c1ccccc1C2 (centres undefined)
inactive: HT-29 > 100 µM | MDA-MB-231 > 100 µM | NCI-H460 > 100 µM | NCI/ADR-RES > 100 µM | OVCAR-4 > 100 µM | SF-268 > 100 µM | SF-295 > 100 µM | SK-MEL-28 > 100 µM | SK-MEL-5 > 100 µM | SNB-75 > 100 µM | SR > 100 µM | TK-10 > 100 µM

CCOC(=O)CCn1ncc(Cl)c(Cl)c1=O
inactive: CAKI-1 6.18 µM | HT-29 4.24 µM | Malme-3M 14.2 µM | NCI-H23 2.27 µM | NCI-H460 11.9 µM | OVCAR-3 3.57 µM | OVCAR-4 1.54 µM | SF-268 7.55 µM | SF-295 19.5 µM | SK-MEL-28 2.65 µM | SK-MEL-2 8.53 µM | SK-MEL-5 11.8 µM | SNB-75 14.8 µM | SR 2.89 µM | TK-10 17.9 µM | UACC-62 6.3 µM

COc1ccc(/C=c2/sc3n(c2=O)NC(c2ccc(Cl)cc2)NN=3)cc1 (centres undefined)
inactive: CAKI-1 > 100 µM | HT-29 > 100 µM | Malme-3M > 100 µM | NCI-H23 > 100 µM | NCI-H460 > 100 µM | OVCAR-3 > 100 µM | OVCAR-4 > 100 µM | SF-268 > 100 µM | SF-295 > 100 µM | SK-MEL-28 > 100 µM | SK-MEL-2 > 100 µM | SK-MEL-5 > 100 µM | SNB-75 23.1 µM | SR > 100 µM | TK-10 > 100 µM | UACC-62 > 100 µM

O=C(O)Cn1c(=O)[nH]c(=O)c2c1ncn2Cc1ccccc1
inactive: CAKI-1 > 100 µM | HT-29 > 100 µM | Malme-3M > 100 µM | NCI-H23 > 100 µM | NCI-H460 > 100 µM | OVCAR-3 > 100 µM | SF-268 > 100 µM | SK-MEL-28 > 100 µM | SK-MEL-2 > 100 µM | SK-MEL-5 > 100 µM | SNB-75 > 100 µM | SR > 100 µM | TK-10 > 100 µM | UACC-62 > 100 µM

COc1cc2cc[n+]3c4cc(OC)c(OC)cc4c(C)cc3c2cc1OC
inactive: CAKI-1 > 100 µM | HT-29 > 100 µM | Malme-3M > 100 µM | NCI-H23 > 100 µM | NCI-H460 > 100 µM | OVCAR-3 > 100 µM | OVCAR-4 > 100 µM | SF-295 > 100 µM | SK-MEL-28 > 100 µM | SK-MEL-2 > 100 µM | SK-MEL-5 > 100 µM | SNB-75 44.7 µM | SR > 100 µM | TK-10 > 100 µM | UACC-62 > 100 µM

COc1nc(/C=N/NC(N)=S)nc(OC)n1
inactive: CAKI-1 78.5 µM | HT-29 76 µM | Malme-3M 72.1 µM | NCI-H23 > 100 µM | NCI-H460 43.5 µM | OVCAR-3 > 100 µM | OVCAR-4 > 100 µM | SF-268 61.7 µM | SF-295 42.3 µM | SK-MEL-28 > 100 µM | SK-MEL-2 > 100 µM | SNB-75 32.7 µM | SR 68.7 µM | TK-10 > 100 µM | UACC-62 35.3 µM
